From ChEMBL document CHEMBL1149880, “Xanthones from Gentianella amarella ssp. acuta with acetylcholinesterase and monoamine oxidase inhibitory activities” (J Nat Prod, 2008) come the findings set out here.

In assay [1] the target is T1, Amine oxidase [flavin-containing] A (Homo sapiens, UniProt P21397).
T1 sequence (P21397 whole entry): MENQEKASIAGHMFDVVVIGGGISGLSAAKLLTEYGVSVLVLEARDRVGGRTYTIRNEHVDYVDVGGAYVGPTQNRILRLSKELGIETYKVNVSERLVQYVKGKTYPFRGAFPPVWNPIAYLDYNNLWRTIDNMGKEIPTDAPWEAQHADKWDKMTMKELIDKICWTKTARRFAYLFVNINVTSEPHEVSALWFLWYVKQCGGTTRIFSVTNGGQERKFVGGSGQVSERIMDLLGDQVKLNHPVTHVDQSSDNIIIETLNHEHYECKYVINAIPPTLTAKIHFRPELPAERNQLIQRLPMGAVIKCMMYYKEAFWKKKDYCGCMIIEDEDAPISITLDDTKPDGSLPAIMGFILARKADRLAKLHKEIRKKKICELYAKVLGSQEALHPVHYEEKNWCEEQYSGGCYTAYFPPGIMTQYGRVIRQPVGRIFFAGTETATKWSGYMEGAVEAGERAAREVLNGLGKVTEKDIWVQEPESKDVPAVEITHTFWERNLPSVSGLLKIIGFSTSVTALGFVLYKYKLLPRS
Put plainly: Inhibition of monoamine oxidase A at 10 uM. To be noted: read-out: INH.

Assay [2] deals with Acetylcholinesterase (Homo sapiens) (UniProt P22303). Particulars: at 10 µM.
Sequence of Acetylcholinesterase (Homo sapiens) (P22303 whole entry): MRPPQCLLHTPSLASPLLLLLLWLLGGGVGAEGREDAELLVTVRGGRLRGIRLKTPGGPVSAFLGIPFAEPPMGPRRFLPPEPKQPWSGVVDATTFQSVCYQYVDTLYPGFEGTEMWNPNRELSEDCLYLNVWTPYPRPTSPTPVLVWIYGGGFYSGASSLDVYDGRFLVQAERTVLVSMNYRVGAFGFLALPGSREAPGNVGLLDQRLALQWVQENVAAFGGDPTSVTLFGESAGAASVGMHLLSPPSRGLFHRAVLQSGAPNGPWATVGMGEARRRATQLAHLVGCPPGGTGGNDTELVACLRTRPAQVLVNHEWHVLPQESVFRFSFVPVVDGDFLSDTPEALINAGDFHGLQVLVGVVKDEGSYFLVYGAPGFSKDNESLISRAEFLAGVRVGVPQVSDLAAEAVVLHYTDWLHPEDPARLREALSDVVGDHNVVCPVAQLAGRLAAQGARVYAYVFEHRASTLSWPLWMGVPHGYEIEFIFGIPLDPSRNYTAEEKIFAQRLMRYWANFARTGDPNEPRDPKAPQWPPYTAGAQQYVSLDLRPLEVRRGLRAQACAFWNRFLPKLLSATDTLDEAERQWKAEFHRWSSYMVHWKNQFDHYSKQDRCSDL
Description: Inhibition of acetylcholinesterase at 10 uM by Ellman's method
In assay [3] the target is T2, Amine oxidase [flavin-containing] B (Homo sapiens, UniProt P27338).
T2 sequence (P27338 whole entry): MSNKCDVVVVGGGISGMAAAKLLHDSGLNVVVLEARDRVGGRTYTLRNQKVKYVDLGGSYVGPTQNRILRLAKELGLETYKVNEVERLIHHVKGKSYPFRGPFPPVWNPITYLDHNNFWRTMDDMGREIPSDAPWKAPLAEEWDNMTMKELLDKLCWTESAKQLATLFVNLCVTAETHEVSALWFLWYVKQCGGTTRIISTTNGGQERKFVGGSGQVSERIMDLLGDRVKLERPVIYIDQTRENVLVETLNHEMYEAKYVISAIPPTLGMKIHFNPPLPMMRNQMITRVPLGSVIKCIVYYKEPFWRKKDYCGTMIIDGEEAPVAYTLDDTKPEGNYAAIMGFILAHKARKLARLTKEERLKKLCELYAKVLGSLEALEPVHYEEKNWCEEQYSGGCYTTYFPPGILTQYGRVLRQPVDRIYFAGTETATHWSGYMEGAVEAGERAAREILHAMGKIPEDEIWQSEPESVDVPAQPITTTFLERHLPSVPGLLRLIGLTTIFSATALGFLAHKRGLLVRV
Put plainly: Inhibition of monoamine oxidase B at 10 uM. To be noted: read-out: INH.

Consider `COc1cc(O)c2c(=O)c3c(O)c(O[C@@H]4O[C@H](CO)[C@@H](O)[C@H](O)[C@H]4O)ccc3oc2c1OC` [TRIPTEXANTHOSIDE C], for which the inhibition at 10 µM in assay [1] turned out to be 13.4%; in assay [3] it was 38.8%. In assay [2], this molecule yielded an inhibition of 43.7%.
Consider `O=c1c2c(O)c(-c3cc(O)c4oc5cc(O)cc(O)c5c(=O)c4c3O)c(O)cc2oc2c(O)ccc(O)c12`, for which the inhibition at 10 µM in assay [1] worked out at 14.8%; in assay [3] it was 41.1%. The molecule also registered an inhibition in assay [2] of 20.9%.
For `COc1c(O)ccc2c(=O)c3c(OC4O[C@H](CO)[C@@H](O)[C@H](O)[C@H]4O)cc(O)c(OC)c3oc12` (some centres not stated), in that order: 15%, 70.5% and 1.5%.
On to `COc1cc(O)c2c(=O)c3cc(O[C@@H]4O[C@H](CO)[C@@H](O)[C@H](O)[C@H]4O)ccc3oc2c1OC` [VERATRILOSIDE], for which the inhibition at 10 µM in assay [1] was 19.4%; in assay [3] it was 56%. For the same molecule, the inhibition in assay [2] was found to be 28.2%.
As to `COc1ccc(O)c2c(=O)c3c(O)cc(O[C@@H]4O[C@H](CO)[C@@H](O)[C@H](O)[C@H]4O)c(OC)c3oc12`, the inhibition at 10 µM was determined as 40.2% in assay [1] and 47.8% in assay [3]. For the same molecule, the inhibition in assay [2] came out at 17.6%.
As for `COc1ccc(O[C@@H]2O[C@H](CO)[C@@H](O)[C@H](O)[C@H]2O)c2c(=O)c3c(O)c(-c4cc(O)c5oc6cc(O)cc(O)c6c(=O)c5c4O)c(O)cc3oc12`, the inhibition at 10 µM in assay [1] stood at 21.4%; in assay [3], 39.1%. Also, the inhibition in assay [2] was 12.3%.
In the case of `C#CCN(C)Cc1ccccc1` [PARGYLINE], the values for the inhibition at 10 µM in assay [1] and in assay [3] were 60% and 98.2%, respectively.
Turning to `O=c1c2c(O)cc(O)cc2oc2c(O)ccc(O[C@@H]3O[C@H](CO)[C@@H](O)[C@H](O)[C@H]3O)c12` [NORSWERTIANOLIN], the figures for the inhibition at 10 µM in assay [1] and in assay [3] were 12.2% and 28.9%, respectively. This molecule displayed an inhibition in assay [2] of 4.4%.
For `COc1cc(O)c2c(=O)c3c(O[C@@H]4O[C@H](CO)[C@@H](O)[C@H](O)[C@H]4O)ccc(O)c3oc2c1` [SWERTIANOLIN], the inhibition at 10 µM in assay [1] is 43.8%; in assay [3], 93.6%. This molecule also registered an inhibition in assay [2] of 9.8%.
For `O=c1c2c(O)cc(O)cc2oc2c(O)ccc(O)c12` [DEMETHYLBELLIDIFOLIN], in that order: 90.5%, 59% and 17.5%.
As to `COc1cc(O)c2c(=O)c3c(O)ccc(O)c3oc2c1` [BELLIDIFOLIN], the inhibition at 10 µM amounted to 98.9% in assay [1] and 65.2% in assay [3]. For the same molecule, the inhibition in assay [2] amounted to 21.9%.
